Test results reported in PMC11397035, “In Vitro and In Silico Analysis of PTP1B Inhibitors from Cleistocalyx operculatus Leaves and Their Effect on Glucose Uptake” (Nutrients, 2024).
“Also recorded” adds a separate entry of the source. Read-outs that look alike come from different tables or passages of the source.

Legend:
[1] = molecular target: T1, PTP1B (Homo sapiens, UniProt P18031); experiment: In vitro PTP1B inhibition assay (p-NPP substrate); assay type: biochemical
T1 construct: purchased Enzo Life Sciences Inc
T1 sequence (P18031 1-435): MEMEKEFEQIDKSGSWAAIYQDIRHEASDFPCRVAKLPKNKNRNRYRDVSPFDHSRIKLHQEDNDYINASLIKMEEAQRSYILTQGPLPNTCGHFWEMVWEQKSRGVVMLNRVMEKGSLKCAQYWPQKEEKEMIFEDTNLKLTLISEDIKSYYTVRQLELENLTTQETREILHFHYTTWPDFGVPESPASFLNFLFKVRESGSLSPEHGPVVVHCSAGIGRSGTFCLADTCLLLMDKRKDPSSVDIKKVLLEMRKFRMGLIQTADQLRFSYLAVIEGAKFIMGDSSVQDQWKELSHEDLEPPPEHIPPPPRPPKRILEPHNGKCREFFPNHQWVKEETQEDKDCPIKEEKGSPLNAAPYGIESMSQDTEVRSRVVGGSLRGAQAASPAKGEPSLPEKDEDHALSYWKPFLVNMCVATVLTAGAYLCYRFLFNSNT
Method: PTP1B enzyme inhibition activity was assessed following a previously described protocol. […] It was followed by incubation at 37 °C for 30 min. After that, 10 μL of 10 M NaOH was added to quench the reaction. […] The non-enzymatic reaction of the substrate was considered and accounted for by comparing data to a control experiment without the PTP1B enzyme. IC50 values were calculated using non-linear regression in GraphPad Prism 10 (GraphPad Software, Inc., San Diego, CA, USA), based on triplicate experiments.

[2] = tested on: 3T3-L1 adipocytes; experiment: Glucose uptake using the 2-NBDG probe in differentiated 3T3-L1 adipocytes; assay type: cell-based; conditions: 1 h; for glucose uptake (2-NBDG) stimulatory effect: 20 μM; for concentration-response of glucose uptake stimulation: 5, 10, and 20 μM
Method: 3T3-L1 fibroblasts were cultured in DMEM (HyClone, Logan, UT, USA) supplemented with 10% calf serum, 100 U/mL penicillin, and 100 μg/mL streptomycin from Gibco (Grand Island, NY, USA). The cells were incubated at 37 °C with 5% CO2. Cells were differentiated after treatment with DMEM enriched with 10% fetal bovine serum (FBS) (HyClone, Logan, UT, USA), 1 μM dexamethasone (Sigma, St. Louis, MO, USA), 520 μM 3-isobutyl-1-methylxanthine (Sigma, St. Louis, MO, USA), and 1 μg/mL insulin (Roche, Mannheim, Germany). After 48 h, the media were changed with fresh DMEM containing 10% FBS, 1 μg/mL insulin, 100 U/mL penicillin, and 100 μg/mL streptomycin. Every 48 ours, the media were replaced until the induction of adipogenesis. Intracellular lipid droplets appeared after 4 to 6 days of incubation.
In vitro experiments measured glucose uptake in 3T3-L1 adipocytes using 2-NBDG, a fluorescent glucose derivative (Invitrogen, Eugene, OR, USA). Cells were cultured on 96-well plates in a glucose-free medium supplemented with 10% FBS. After incubation, cells were treated with either insulin (as a positive control) or the test compounds in the presence or absence of 2-NBDG and were further incubated for an additional hour. Cells were washed with cold phosphate-buffered saline (PBS). The 2-NBDG fluorescence was quantified by measuring the signal intensity at excitation/emission wavelengths of 450/535 nm using a SpectraMax Gemini XPS fluorescence microplate reader (Molecular Devices, San Jose, CA, USA). For cellular transport studies involving 2-NBDG, 3T3-L1 adipocytes were grown on sterilized glass coverslips in a glucose-free medium containing 10% FBS for 24 h. After treatment with 2-NBDG, cells were washed with cold PBS. Fluorescent images were obtained with an Olympus IX 70 fluorescence microscope (Olympus Corporation, Tokyo, Japan) to quantify the cellular transport of 2-NBDG.

[3] = molecular target: T1, PTP1B; experiment: Kinetic analysis with PTP1B (Lineweaver–Burk and Dixon plots); assay type: biochemical; conditions: for Ki: determined by Dixon plot interpretation; for Inhibition Type: determined by Lineweaver–Burk plots
Method: Reaction velocity was measured at different concentrations of tested compounds for kinetic analysis. The tested compounds or DMSO were preincubated with the enzyme and buffer solution at 37 °C for 2 min, followed by adding 50 μL of substrate (p-NPP) at different concentrations. The initial reaction velocities were monitored at 37 °C at 405 nm for 15 min. The kinetic reaction slopes were calculated based on the absorbance increments observed between 2 and 10 min (within the linear range). GraphPad Prism 10 (GraphPad Software, Inc., San Diego, CA, USA) was used to graph the double reciprocal Lineweaver–Burk and Dixon plots.

[4] = tested on: pre-diabetic male Sprague Dawley rats; set-up: method as in PMID 29596390; conditions: pre-diabetic male Sprague Dawley rats ref 44; cited from earlier work
[5] = tested on: 3T3-L1 adipocytes; set-up: method as in PMID 27765349; conditions: cited from earlier work
[6] = 50% PTP1B inhibitory effect, mean ± S.E.M. of triplicate experiments, six concentrations, read-out: IC50

Compound | IC50 [1, 6] [µM] | PTP1B inhibitory activity (in words) [1] | glucose uptake (2-NBDG) stimulatory effect [2] | other results
C=C(CO)C1CCC2(C(=O)OC)CCC3(C(=O)O)C(CCC4C5(C)CCC(O)C(C)(C)C5CCC43C)C12 (centres unmarked) [Compound 1, Cleistocalyxic acid L] | > 20 | – | – | –
C=C(C)C1CCC2(C(=O)OC)CCC3(C(=O)O)C(CCC4C5(C)CCC(O)C(C)(CO)C5CCC43C)C12 (centres unmarked) [Compound 2, Cleistocalyxic acid M] | > 20 | – | – | –
C=C1CCC23CCC4(C)C5(C)CCC6C(=C)C(O)C(O)CC6(C)C5C5OC5C4(OC2=O)C3C1C (centres unmarked) [Compound 3, Cleistocalyxolide C] | > 20 | reduced inhibitory effects | low glucose uptake stimulation | –
C=C(C)[C@@H]1CC[C@]2(C(=O)OC)CC[C@]3(C(=O)O)C(CCC4[C@@]5(C)CC[C@H](O)C(C)(C)C5CC[C@]43C)C12 (some centres unmarked) [Compound 4, melaleucic acid 28-O-methyl ester] | 8.7 ± 0.6 | – | – | –
C=C(C)[C@@H]1CC[C@]2(C(=O)O)CC[C@]3(C)[C@H](CC[C@@H]4[C@@]5(C)CC[C@H](O)C(C)(C)[C@@H]5CC[C@]43C)[C@@H]12 [Compound 5, betulinic acid] | 2.2 ± 0.1 | significant inhibitory activity | – | –
C=C(C)[C@@H]1CC[C@]2(C(=O)O)CC[C@]3(C)[C@H](CC[C@@H]4[C@@]5(C)C[C@@H](O)[C@H](O)C(C)(C)[C@@H]5CC[C@]43C)[C@@H]12 [Compound 6, alphitolic acid] | 4.1 ± 0.2 | strong PTP1B inhibitory activities | showed glucose uptake stimulatory effects; also recorded: particularly potent glucose uptake stimulatory effects | Ki [3]: 2.8 ± 0.4 µM; Inhibition Type [3]: non-competitive inhibitor of PTP1B; concentration-response of glucose uptake stimulation [2]: dose dependent
C=C1[C@@H](O)[C@H](O)C[C@]2(C)[C@H]3[C@@H]4O[C@@H]4[C@]45OC(=O)[C@@]6(CC[C@@H](C)[C@H](C)[C@H]64)CC[C@@]5(C)[C@]3(C)CC[C@@H]12 [Compound 7, ulmoidol] | > 20 | reduced inhibitory effects | low glucose uptake stimulation | –
CC1(C)CCC23CCC4(C)C5(C)CCC6C(C)(C)C(O)C(O)CC6(C)C5CC(O)C4(OC2=O)C3C1 (centres unmarked) [Compound 8, (2a, 3b, 12a)-trihydorxy-olean-28-oic acid 28,13-lactone] | > 20 | reduced inhibitory effects | low glucose uptake stimulation | –
C[C@@H]1CC[C@]2(C(=O)O)CC[C@]3(C)C(=CCC4[C@@]5(C)C[C@@H](O)[C@H](O)[C@@](C)(CO)C5CC[C@]43C)C2[C@]1(C)O (some centres unmarked) [Compound 9] | 4.4 ± 0.5 | strong PTP1B inhibitory activities | – | Ki [3]: 7.6 ± 1.2 µM; Inhibition Type [3]: non-competitive inhibitor of PTP1B
C=C1C2CC[C@]3(C)C(CC=C4C5[C@](C(=O)O)(CC[C@@H](C)[C@@]5(C)O)CC[C@]43C)[C@@]2(C)C[C@@H](O)[C@@H]1O (stereo partly drawn) [Compound 10, 2α,3β,19α-trihydroxy-24-norurs-4(23),12-dien-28-oic acid] | 12.2 ± 0.3 | – | – | –
C=C1[C@@H](O)[C@H](O)C[C@]2(C)[C@H]3CC=C4[C@@H]5[C@@H](C)[C@H](C)CC[C@]5(C(=O)O)CC[C@@]4(C)[C@]3(C)CC[C@@H]12 [Compound 11, ilekudinol B] | 14.1 ± 0.3 | – | – | –
CC1(C)CC[C@]2(C(=O)O)CC[C@]3(C)C(=CC[C@@H]4[C@@]5(C)CC[C@H](O)C(C)(C)[C@@H]5CC[C@]43C)[C@@H]2C1 [Compound 12, oleanolic acid] | – | – | showed glucose uptake stimulatory effects | glucose homeostasis and progression of type 2 diabetes [4]: improve glucose homeostasis and prevent the progression of type 2 diabetes
CC1(C)CC[C@]2(C(=O)O)CC[C@]3(C)C(=CC[C@@H]4[C@@]5(C)C[C@@H](O)[C@H](O)C(C)(C)[C@@H]5CC[C@]43C)[C@@H]2C1 [Compound 13, maslinic acid] | – | significant inhibitory activity | showed glucose uptake stimulatory effects; also recorded: particularly potent glucose uptake stimulatory effects | IC50 [1]: 1.28 ± 0.1 µM; Ki [3]: 3.2 ± 0.6 µM; Inhibition Type [3]: non-competitive inhibitor of PTP1B; concentration-response of glucose uptake stimulation [2]: dose dependent; glucose uptake [5]: increased glucose uptake; intracellular Ca2+ concentration [5]: raised intracellular Ca^2+ concentration; lipid droplet and triglyceride levels [5]: reduced lipid droplet and triglyceride levels
CC1(C)CC[C@]2(CO)CC[C@]3(C)C(=CC[C@@H]4[C@@]5(C)CC[C@H](O)C(C)(C)[C@@H]5CC[C@]43C)[C@@H]2C1 [Compound 14, erythrodiol] | 3.6 ± 0.2 | – | – | –
CC1(C)CC[C@]2(C(=O)O)CC[C@]3(C)C(=CC[C@@H]4[C@@]5(C)C[C@@H](O)[C@H](O)[C@@](C)(CO)[C@@H]5CC[C@]43C)[C@@H]2C1 [Compound 15, arjunolic acid] | 6.6 ± 0.6 | – | – | –
CC1(C)CC[C@]2(C(=O)O)CC[C@]3(C)C(=CCC4[C@@]5(C)C[C@@H](O)[C@H](OC(=O)/C=C/c6ccc(O)cc6)C(C)(C)C5CC[C@]43C)C2C1 (some centres unmarked) [Compound 16, 3-O-(E)-p-coumaroyl maslinic acid] | 3.6 ± 0.4 | – | showed glucose uptake stimulatory effects | –
CC1(C)CC[C@]2(C(=O)O)CC[C@]3(C)C(=CCC4[C@@]5(C)C[C@@H](O)[C@H](OC(=O)/C=C\c6ccc(O)cc6)C(C)(C)C5CC[C@]43C)C2C1 (some centres unmarked) [Compound 17, 3-O-(Z)-p-coumaroyl maslinic acid] | 2.6 ± 0.3 | strong PTP1B inhibitory activities; also recorded: significant inhibitory activity | showed glucose uptake stimulatory effects; also recorded: particularly potent glucose uptake stimulatory effects | Ki [3]: 2.7 ± 0.4 µM; Inhibition Type [3]: non-competitive inhibitor of PTP1B; concentration-response of glucose uptake stimulation [2]: dose dependent
